Test results taken from patent US6488912B1, “Treatment of dentoalveolar infections with taurolidine and/or taurultam” (Ed. Geistlich Soehne AG fuer Chemische Industrie, priority 1992, dated 2002).

Key:
[1] = test system: human desmodontal fibroblasts; details: cited from earlier work
[2] = test system: Alveolitis sicca dolorose; experiment: Controlled clinical trial, total treatment time to complete remission: alveolitis; assay type: in vivo, patients; details: TAUR: T-Irrigation fluid 3% + T-Dental emulsion 3%, STANDARD: NaCl 0.9% + AUREOMYCIN Ointment 3%, n=100 per group
Procedure: (§1) The in-vivo tests were carried out at the Clinic for Maxillofacial Surgery, Munich University between 1989 and 1992. In accordance with modern biometric principles the study was planned as a controlled clinical trial, i.e. it was conducted according to a prospective, protective, randomized, monocentre and simple blind design.
(§2) The test substances investigated were 4 different galenic presentation forms of the active component taurolidine and 4 conventional finished pharmaceuticals.
(§3) For each of the 6 indications investigated an exact therapeutic procedure was fixed. The surgical management was carried out according to the individual situation in the usual manner. Tables 1 and 2 show the antimicrobial therapy regimens defined for patient groups A (Taurolidine group) and B (Standard group). It is evident, that the only difference, with the same quantity of substance applied in the same form, was the choice of preparation.
(§4) For critical examination of the effectiveness of the different pharmaceuticals concerning therapeutic success and total treatment time clinical parameters reflecting the progress of recovery were controlled and documented at every session. The following 6 target variables were defined and evaluated by a uniform scale (0=none to 4=very strong):
(§5) The score-level 5 (total) was given at the moment of complete remission and describes consequently the final point of treatment.
(§6) 200 cases were treated in each indication group, the total number amounted to 1,200. The distribution into the two therapy regimens was realised by random sampling. Statistical evaluations were made by means of testing methods described in customary literature.

Pericoronitis = experiment: Controlled clinical trial, total treatment time to complete remission: pericoronitis; assay type: in vivo, patients; details: TAUR: T-Irrigation fluid 3% + T-Dental emulsion 3%, STANDARD: NaCl 0.9% + AUREOMYCIN Ointment 3%, n=100 per group
Procedure: as §1, §2, §3, §4, §5, §6

Gangrene = experiment: Controlled clinical trial, total treatment time to complete remission: gangrene; assay type: in vivo, patients; details: TAUR: T-Irrigation fluid 3% + T-Liquid gel 3%, STANDARD: H2O2 3% + CHKM Solution, n=100 per group
Procedure: as §1, §2, §3, §4, §5, §6

Abscess = experiment: Controlled clinical trial, total treatment time to complete remission: abscess; assay type: in vivo, patients; details: TAUR: T-Irrigation fluid 3% + T-Dental emulsion 3%, STANDARD: NaCl 0.9% + AUREOMYCIN Ointment 3%, n=100 per group
Procedure: as §1, §2, §3, §4, §5, §6

dentoalveolar infections = experiment: Controlled clinical trial, taurolidine vs conventional therapy, all 6 indications pooled: target variables; assay type: in vivo, patients
Procedure: as §1
The following 6 indications examined were selected specifically on the basis of their incidence and clinical relevance.
as §2, §3, §4, §5, §6

Infection Prophylaxis = experiment: Controlled clinical trial, total treatment time to complete remission: infection prophylaxis; assay type: in vivo, patients; details: TAUR: T-Dental gel 2%, STANDARD: CHLORHEXAMED Dental gel 1%, n=100 per group
Procedure: as §1, §2, §3, §4, §5, §6

Parodontitis marginalis = experiment: Controlled clinical trial, total treatment time to complete remission: parodontitis; assay type: in vivo, patients; details: TAUR: T-Liquid gel 3% + T-Dental emulsion 3%, STANDARD: DONTISOLON Ointment M, n=100 per group
Procedure: as §1, §2, §3, §4, §5, §6

[3] = background statement; cited from earlier work
[4] = all 6 indications, n=600 per group, maximum
[5] = all 6 indications, n=600 per group, mean
[6] = all 6 indications, n=600 per group, minimum

[H]/N=C(\N/C(=N/[H])NCCCCCCNC(=N)NC(=N)Nc1ccc(Cl)cc1)Nc1ccc(Cl)cc1 [Chlorhexidine]
cell damage [1]: accelerated ageing and a cytopathological effect

O=S1(=O)CCN(CN2CCS(=O)(=O)NC2)CN1 [TAUR, taurolidine]
ALVEOLITIS, total treatment TIME (remission), Maximum ([2]; maximum): 15 days | ALVEOLITIS, total treatment TIME (remission), Mean ([2]; mean): 5.6 days | ALVEOLITIS, total treatment TIME (remission), Minimum ([2]; minimum): 3 days | PERICORONITIS, total treatment TIME (remission), Maximum (Pericoronitis; maximum): 12 days | PERICORONITIS, total treatment TIME (remission), Mean (Pericoronitis; mean): 5.1 days | PERICORONITIS, total treatment TIME (remission), Minimum (Pericoronitis; minimum): 2 days | GANGRENE, total treatment TIME (remission), Maximum (Gangrene; maximum): 10 days | GANGRENE, total treatment TIME (remission), Mean (Gangrene; mean): 5.0 days | GANGRENE, total treatment TIME (remission), Minimum (Gangrene; minimum): 2 days | ABSCESS, total treatment TIME (remission), Maximum (Abscess; maximum): 13 days | ABSCESS, total treatment TIME (remission), Mean (Abscess; mean): 5.5 days | ABSCESS, total treatment TIME (remission), Minimum (Abscess; minimum): 2 days | PAIN TIME, Maximum (dentoalveolar infections; [4]): 14 days | PERCUSSION TIME, Maximum (dentoalveolar infections; [4]): 13 days | PRESSURE PAIN TIME, Maximum (dentoalveolar infections; [4]): 15 days | SECRETION TIME, Maximum (dentoalveolar infections; [4]): 15 days | SWELLING TIME, Maximum (dentoalveolar infections; [4]): 14 days | PERCUSSION TIME, Mean (dentoalveolar infections; [5]): 1.9 days | PRESSURE PAIN TIME, Mean (dentoalveolar infections; [5]): 5.3 days | SECRETION TIME, Mean (dentoalveolar infections; [5]): 3.9 days | SWELLING TIME, Mean (dentoalveolar infections; [5]): 4.5 days | PAIN TIME, Minimum (dentoalveolar infections; [6]): 1 days | PERCUSSION TIME, Minimum (dentoalveolar infections; [6]): 1 days | PRESSURE PAIN TIME, Minimum (dentoalveolar infections; [6]): 1 days | SECRETION TIME, Minimum (dentoalveolar infections; [6]): 1 days | SWELLING TIME, Minimum (dentoalveolar infections; [6]): 1 days | effectiveness against standard therapy (more rapid recovery) (dentoalveolar infections; all 6 indications, p<0.0001): superior effectiveness | side effects after application (dentoalveolar infections; during the acute period of inflammation): slight pain for some minutes after application | optional antibiotics and analgetics required/administered (dentoalveolar infections; taurolidine group vs standard group, p=0.007 resp. p=0.01): significantly less | pain-free earlier than under conventional treatment (average) (dentoalveolar infections; taurolidine vs conventional treatment): 2 days | INFECT. PROPHYLAXIS, total treatment TIME (remission), Maximum (Infection Prophylaxis; maximum): 13 days | INFECT. PROPHYLAXIS, total treatment TIME (remission), Mean (Infection Prophylaxis; mean): 7.5 days | INFECT. PROPHYLAXIS, total treatment TIME (remission), Minimum (Infection Prophylaxis; minimum): 3 days | PARODONTITIS, total treatment TIME (remission), Maximum (Parodontitis marginalis; maximum): 14 days | PARODONTITIS, total treatment TIME (remission), Mean (Parodontitis marginalis; mean): 5.1 days | PARODONTITIS, total treatment TIME (remission), Minimum (Parodontitis marginalis; minimum): 2 days

Neomycin
allergy rate [3]: 15-30%
